Where two headings read alike, the source gives them in different places.
Tests used:
wild type HIV-1 envelope = assay: HIV-based cell-cell fusion (syncytium) assay, co-culture of HeLa-CD4+ cells and CHO-WT cells; conditions: for antiviral entry activity: HIV entry / syncytium formation
Text: Tieghemella heckelii (Sapotaceae, Th) is a large tree found in the West African rain forest. In January and February, the plant blossoms and develops ovoid fruits of 8 cm length and 7 cm diameter, which ripen in July-October. Many parts of the tree are used in traditional medicine. We have used a series of high-speed counter-current chromatography (HSCC), viral entry and infectivity assay and HIV-based cell-cell fusion assay to isolate specific HIV viral entry inhibitors from the ovoid fruits of the plants. The procedures for the isolation have been described in detail (4). Two pure saponin compounds, Arganine C (Rev 1) and Tieghemella (Gen. 1) have been isolated with the yield of 0.48% and 0.6% respectively.
In HIV infection, syncytia are the result of viral attachment and cell membrane fusion which create giant multi-nucleated cells consisting of both infected and uninfected cells. Rev. 1 and Gen. […] Rev-1 and Gen-1 are structurally identical except for one attached group at C23 (FIG. 1A). C23 glucose for Rev-1 and glucuronic acid for Gen-1 (4, 5). Their antiviral activity requires the C28 sugar chain. […] The four sugars in the substituent at the C28 position are L-arabinose, L-rhamnose, D-xylose and L-rhamnose (FIG. 1B).

HIV particles = assay: HIV-1 attachment to pre-cooled HeLa CD4+ cells, viral capsid in cell lysates; conditions: HeLa CD4+ cells at 4° C., 30-minute attachment, up to 20 μM
Description: To determine whether the two saponins act exclusively at the attachment step, target HeLa CD4^+ cells were initially pre-cooled at 4° C. before viral exposure to exclude the possibility of virus internalization. Each compound, at graded concentrations, was then mixed with HIV particles and added to target cells in cold media. After a 30-minute attachment period, the cells were profusely washed to remove unbound virus. […] H9 cells (4×10^5) were first incubated with compound and then infected with virus for one hour at 37° C. in CO2 incubator to permit virus fusion and entry. The cells were then centrifuged and washed 3 times with phosphate buffered saline (PBS) to remove the unbound virus as described previously (6,7). The viral entry was determined by p24 antigen-capture assay. For the drug effect on HIV-1 replication and infection, the culture was incubated for 8 days. Viral replication was determined by the amount of HIV-1 p24 antigen in culture supernatant after 8 days of virus infection in H9 cells using the HIV/p24 monoclonal antibody assay (8). […] Only low concentrations were used for testing to minimize the cellular toxicities of the drug.

HIV transcription = conditions: cited from earlier work
H9 cells = assay type: cell-based; conditions: 192 h
Description: A series of drug concentrations ranging from 1.25 μg/ml to 160 μg/ml were used for testing the cytotoxicity of M522 and M532 in H9 cells, using the MTT assay to determine the viability of H9 cells in culture. […] In fact, the drug-protected, HIV-infected H9 cells appeared to be morphologically identical to the uninfected control cells (6).
(§1) Similarly, PBMC cells were isolated from a healthy blood sample and these cells were stimulated by PHA and IL-2. PBMC (5×10^6/ml) were infected with HIV-1RTMF. The cells were treated with three combinations of drugs, M522, Gen-1 and G4N. Fresh media and drugs were added after 4 days with drug concentrations 0, 1.25, 2.5, 5, 10, 20, 40 and 80 μM. The inhibition for HIV-1 by these combinations of drugs was also examined by using p24 assay after 8 days. […] In comparison, cytotoxicity for the three drugs combined to H9 cells was also analyzed using an MTT assay.

HIV-1 integrase = HIV-1 integrase (Human immunodeficiency virus type 1 group M subtype B, UniProt P04585); assay: HIV-1 integrase catalytic activity of 3'-joining to the target DNA; assay type: biochemical; conditions: read-out: IC50, 3′-joining to the target DNA
Text: (§2) a. Salvia genus of Labiaceae family contains approximately 1000 species. 78 of these are distributed in different regions in China. […] An INi search was established based on an assay-guided purification procedure utilizing different concentrations of methanol, propanol, a two-layer extraction system (low salt water/butanol), and a high resolution inverted phase HPLC (Sperisorb OD S-2).

HIV = HIV entry in H9 cells; assay type: cell-based; conditions: compound by itself
Text: as §2

reverse transcriptase = target: T1, reverse transcriptase (Human immunodeficiency virus type 1 group M subtype B, UniProt P04585); assay: Reverse transcriptase activity and viral DNA levels in infected cells; assay type: cell-based, HIV
T1 construct: endogenous in cells; host or cells: HIV-infected cells (H9 cells named in the same paragraph)
Text: as §2

HIV-1 = assay: Acute HIV-1 infection of H9 cells; assay type: cell-based
Text: as §2

[1] = tested on: HIV-1RTMF (AZT-resistant virus); assay: HIV replication in infected H9 cells, HIV/p24 monoclonal antibody assay; assay type: cell-based; conditions: H9 cells infected with HIV-1RTMF in the presence of drug
Description: The inhibitory effect of M522 and M532 against HIV replication was further examined using 5 different strains of HIV-1, drug resistant and primary isolates in the presence of a variety of drug concentrations in infected H9 cells.
A series of drug concentrations ranging from 1.25 μg/ml to 160 μg/ml were used for testing the cytotoxicity of M522 and M532 in H9 cells, using the MTT assay to determine the viability of H9 cells in culture.

[2] = target: deletion mutant HIV-1 integrase (IN^50-212) (Human immunodeficiency virus type 1 group M subtype B, UniProt P04585); assay: Disintegration assay; assay type: biochemical; conditions: IN^50-212 core domain; equal efficacy with wild type
Description: (§3) To determine whether M522 and M532 are acting against the catalytic core domain specifically, disintegration assay was tested using deletion mutant IN containing only the core domain of HIV integrase. Such deletion mutant is defective for normal integration, but it is capable of catalyzing a reversal of the forward reaction, termed “disintegration”. The disintegration reaction can be assayed by using a deletion mutant HIV-1 integrase (IN^50-212) which lacks both the amino terminal zinc binding and the carboxyl terminal DNA binding domains but remains active in this assay, whereas such truncated IN loses activity in the 3′-processing and joining (strand transfer) assays. So, disintegration assay can be used to probe the site of drug-enzyme binding.

[3] = target: wild type HIV-1 integrase (Human immunodeficiency virus type 1 group M subtype B, UniProt P04585); assay: Disintegration assay; assay type: biochemical; conditions: equal efficacy with deletion mutant
Description: as §3

[4] = tested on: Sp1 binding sites of the HIV long terminal repeat (LTR); conditions: in vitro; cited from earlier work
HSV-2 = assay: Mouse vaginal model of HSV-2 infection; assay type: in vivo, female CF-1 mice; conditions: 10 mM
Text: P4N was also found to be quite effective.

red blood cells = assay: Hemolysis, release of hemoglobin from red blood cells; assay type: cell-based
Description: As such, Rev-1 and Gen-1 are both hemolytic, a property which may restrict potential use in therapy. To see whether modification of C28 sugar side chain can abolish such hemolytic effect, we acetylated the hydroxyl group of the C28 sugars with acetic anhydride. Briefly, 10 ml of pyridine and 5 ml acetic anhydride were added to a solution of pure tieghemella (Gen-1, 100 mg) in 5 ml methanol at 0° C. The solution mixture was allowed to reflux for […]. The resultant mixture was extracted with water at 20° C. as described in reference 9. The aqueous solution was washed several times with dichloromethane. The water filtrate was dried under the hood to afford oAc-Gen-1; (160 mg). We compared the hemolytic effect of Gen-1 and oAc-Gen-1 by measuring the release of hemoglobin from red blood cells in the presence of Gen.1 or o-Ac Gen.

HIV-1RTMF = assay: Drug combination study in H9 cells infected with HIV-1RTMF, p24 assay; assay type: cell-based; conditions: Human immunodeficiency virus 1, H9, 192 h
Text: We tested drug combinations against two different cells infected with laboratory strain of HIV-1 RTMF. For these drug combinational studies, both the H9 cells and human PBMC have been used. We first tested how our inhibitors affect one specific strain of HIV which is resistant to drug against RT (HIV-1RTMF). Briefly H9 (1×10^5/ml) were infected with HIV-1RTMF strain with a multiplicity of infection of 0.1. These cells were further tested with three drugs, M522, Gen-1 and G4N, either in combination or separately (8, 10, 21B). After 4-day incubation at 37° C., H9 cells were subcultured with fresh culture medium containing appropriate concentrations 0, 1.25, 2.5, 5, 10, 20, 40 and 80 μM of each of the drugs, or of a combination of all three of the drugs, each at the indicated concentration. The inhibition for HIV-1 by these combinations of drugs was examined using p24 assay after 8 days.
as §1

Which antiviral entry activity (wild type HIV-1 envelope) does the source give for `CC1(C)CC[C@]2(C(=O)O)[C@H](O)C[C@]3(C)C(=CC[C@@H]4[C@@]5(C)C[C@H](O)[C@H](O[C@@H]6O[C@H](C(=O)O)[C@@H](O)[C@H](O)[C@H]6O)[C@@](C)(CO)[C@@H]5[C@H](O)C[C@]43C)[C@@H]2C1` [A-GEN, 16α-hydroxyprotobassic acid 3-0-β-D-glucuronopyranoside] here?
Its antiviral entry activity is “total loss of antiviral entry activity”.

What about the inhibition of attachment (HIV particles) of the same compound?
Its inhibition of attachment is “totally devoid of activity”.

Which antiviral entry activity (wild type HIV-1 envelope) does the source give for `CC1(C)CC[C@]2(C(=O)O)[C@H](O)C[C@]3(C)C(=CC[C@@H]4[C@@]5(C)C[C@H](O)[C@H](O[C@@H]6O[C@H](CO)[C@@H](O)[C@H](O)[C@H]6O)[C@@](C)(CO)[C@@H]5[C@H](O)C[C@]43C)[C@@H]2C1` [A-REV, 16α-hydroxyprotobassic 3-0-β-D-glycopyransoide] here?
The antiviral entry activity was “total loss of antiviral entry activity”.

For `COc1cc(C[C@H](C)[C@H](C)Cc2ccc(O)c(O)c2)ccc1O` [3′-O-methyl NDGA], which “inhibition of HIV transcription” value (HIV transcription) is on record?
Its value is “specifically block HIV transcription”.

Which results are given for `O=C(/C=C/c1ccc(O)c2c1[C@H](C(=O)O[C@H](Cc1ccc(O)c(O)c1)C(=O)O)[C@@H](c1ccc(O)c(O)c1)O2)O[C@H](Cc1ccc(O)c(O)c1)C(=O)O` [M532, lithospermic acid B]?
CC100 (highest concentration tested, cells remained viable) (H9 cells): 160 µg/mL; IC50 (HIV-1 integrase): 0.37 µM; prevention of HIV entry (HIV): Neither M522 nor M532 by itself prevents HIV entry; levels of intracellular strong stop and full-length viral DNA (reverse transcriptase; following drug treatment): remained unchanged; inhibition of reverse transcriptase activity (reverse transcriptase; infected cells): no inhibition of reverse transcriptase activity; IC50 (HIV-1): 6.9 µM; syncytia formation [1]: syncytia formation was prevented; inhibition of disintegration [2]: inhibited; inhibition of disintegration [3]: inhibited

Which results are given for `CC(Cc1ccc(O)c(O)c1)C(C)Cc1ccc(O)c(O)c1` (stereo not shown) [NDGA, nordihydroguaiaretic acid, reference compound]?
inhibition of HIV transcription (HIV transcription): does not inhibit HIV transcription; effect on Sp1 binding [4]: no effect on Sp1 binding

For `C[C@H](Cc1ccc(OCCN2CCCCC2)c(OCCN2CCCCC2)c1)[C@@H](C)Cc1ccc(OCCN2CCCCC2)c(OCCN2CCCCC2)c1` [P4N], which average scale (HSV-2) is on record?
Its average scale is 0.19.

What about the animals infected (HSV-2; 10 mice per group) of the same compound?
Its animals infected is 2 of 10.

What about the “effect on Sp1 binding” value [4] of the same compound?
Its value is “disrupt Sp1 transcription factor binding”.

Which results are given for `C[C@@H]1O[C@@H](O[C@@H]2[C@@H](O)[C@H](O[C@@H]3[C@@H](O)[C@@H](O)[C@H](O[C@H]4[C@H](OC(=O)[C@]56CCC(C)(C)C[C@H]5C5=CC[C@@H]7[C@@]8(C)C[C@H](O)[C@H](O[C@@H]9O[C@H](C(=O)O)[C@@H](O)[C@H](O)[C@H]9O)[C@@](C)(CO)[C@@H]8[C@H](O)C[C@@]7(C)[C@]5(C)C[C@H]6O)OC[C@H](O)[C@@H]4O)O[C@H]3C)OC[C@H]2O)[C@H](O)[C@H](O)[C@H]1O` [Gen-1, Tieghemelin]?
antiviral entry activity (wild type HIV-1 envelope): less potent; IC50 (wild type HIV-1 envelope; Human immunodeficiency virus 1): 17 µM; hemolytic effect (red blood cells): hemolytic; red blood cells lysed (red blood cells; 57 μM): 50%; IC50 (HIV-1RTMF): 40 µM; inhibition of attachment (HIV particles): dose-dependent inhibition of attachment

Which results are given for `C[C@@H]1O[C@@H](O[C@@H]2[C@@H](O)[C@H](O[C@@H]3[C@@H](O)[C@@H](O)[C@H](O[C@H]4[C@H](OC(=O)[C@]56CCC(C)(C)C[C@H]5C5=CC[C@@H]7[C@@]8(C)C[C@H](O)[C@H](O[C@@H]9O[C@H](CO)[C@@H](O)[C@H](O)[C@H]9O)[C@@](C)(CO)[C@@H]8[C@H](O)C[C@@]7(C)[C@]5(C)C[C@H]6O)OC[C@H](O)[C@@H]4O)O[C@H]3C)OC[C@H]2O)[C@H](O)[C@H](O)[C@H]1O` [Rev.1, arganine C]?
antiviral entry activity (wild type HIV-1 envelope): strongly inhibited; IC50 (wild type HIV-1 envelope; HIV-based cell-cell fusion assay (FIG. 1), read-out: IC50): 2.8 µM; hemolytic effect (red blood cells; effective drug concentrations that blocked viral entry): hemolytic; inhibition of attachment (HIV particles): dose-dependent inhibition of attachment
